The text below walks through data of US20230158025A1 (UNIVERSITY OF UTAH RESEARCH FOUNDATION, priority 2020, published 2023).

Read-outs that look alike come from different tables or passages of the source.

One data set concerns the target recombinant human GALK1 (Homo sapiens, UniProt P51570). As to the kind of experiment: hGALK1 biochemical activity assay (Kinase-Glo Plus, ATP depletion). A digest of the protocol:
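Recombinant human or mouse GALK1 (5 nM, with 100 μM galactose, in the added enzyme solution) was run with ATP (35 μM in the substrate solution) in HEPES pH 8.0 buffer. Compounds were tested at 11 1/3-step concentrations from 57.4 μM to 0.97 nM. After 1 h at room temperature, remaining ATP was read by Kinase-Glo Plus luminescence.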

The next data set addresses recombinant mouse GALK1 (Mus musculus, UniProt Q9R0N0). Description: mGALK1 biochemical activity assay (Kinase-Glo Plus, ATP depletion). The essentials:
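Recombinant GALK1 (5 nM) with 100 μM galactose; GALK1 turnover read as ATP depletion by Kinase-Glo Plus luminescence. Reaction ran 1 h at room temperature before detection reagent was added.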

Data set [1] in a line: rat microsomal stability (RLM).
Data set [2] in a line: aqueous kinetic solubility.
The mark [3] stands for this setting: recombinant human GALK1, Kinase-Glo Plus ATP depletion, bracketed figure in the cell, e.g. (−1.2), is not defined in the text shown, read-out: hGALK.
The mark [4] stands for this setting: recombinant mouse GALK1, Kinase-Glo Plus ATP depletion, bracketed figure in the cell, e.g. (−1.2), is not defined in the text shown, read-out: mGALK.
The mark [5] stands for this setting: microsomal stability half-life, minutes.
[6] abbreviates: Tables 2-15, 35 μM ATP, 100 μM galactose, 1 h, bracketed figure after some values (e.g. −1.2) is undefined and not reported, read-out: hGALK IC50.
The mark [7] stands for this setting: recombinant human GALK1, Kinase-Glo Plus ATP depletion, read-out: hGALK.
[8] abbreviates: Tables 2-15, 35 μM ATP, 100 μM galactose, 1 h, bracketed figure after some values is undefined and not reported, read-out: mGALK IC50.
Where [9] appears, read: recombinant mouse GALK1, Kinase-Glo Plus ATP depletion, read-out: mGALK.

recombinant human GALK1, sequence (P51570 whole entry): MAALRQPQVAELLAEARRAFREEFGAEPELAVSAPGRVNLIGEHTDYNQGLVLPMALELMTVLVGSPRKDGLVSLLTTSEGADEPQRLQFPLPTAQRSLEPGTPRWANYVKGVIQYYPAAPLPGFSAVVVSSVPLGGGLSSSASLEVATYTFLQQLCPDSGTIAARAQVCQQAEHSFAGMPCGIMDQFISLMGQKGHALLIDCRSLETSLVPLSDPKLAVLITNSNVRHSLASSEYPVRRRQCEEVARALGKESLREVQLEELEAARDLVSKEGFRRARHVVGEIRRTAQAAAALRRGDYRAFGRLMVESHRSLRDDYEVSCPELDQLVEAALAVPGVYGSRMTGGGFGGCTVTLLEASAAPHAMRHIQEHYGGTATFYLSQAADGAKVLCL
recombinant mouse GALK1, sequence (Q9R0N0 whole entry): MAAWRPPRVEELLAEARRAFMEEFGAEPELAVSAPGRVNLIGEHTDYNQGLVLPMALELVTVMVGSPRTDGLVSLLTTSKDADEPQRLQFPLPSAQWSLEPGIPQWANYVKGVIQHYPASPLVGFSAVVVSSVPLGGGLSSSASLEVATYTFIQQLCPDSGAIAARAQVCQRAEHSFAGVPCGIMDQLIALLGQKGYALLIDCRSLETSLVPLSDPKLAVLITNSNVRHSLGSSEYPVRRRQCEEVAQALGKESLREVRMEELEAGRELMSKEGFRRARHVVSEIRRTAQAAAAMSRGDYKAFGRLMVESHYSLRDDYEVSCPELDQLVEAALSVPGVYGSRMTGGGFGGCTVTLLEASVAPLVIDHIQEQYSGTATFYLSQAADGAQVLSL

Consider `CC1=C(C(=O)Nc2nncs2)C(c2ncccc2Cl)N=C(Nc2nc3ccccc3o2)N1` (centres unmarked) [Compound 256, 2-(benzo[d]oxazol-2-ylamino)-4-(3-chloropyridin-2-yl)-6-methyl-N-(1,3,4-thiadiazol-2-yl)-1,4-dihydropyrimidine-5-carboxamide], for which the values for the IC50 at recombinant human GALK1 (setting [3]) and on recombinant mouse GALK1 (setting [4]) were 6.85 µM and 19.3 µM, respectively. Also, the “Perm. (1 × 10^−6 cm/sec)” value in “PAMPA permeability” (PAMPA) is 695.3 1 × 10^−6 cm/sec. Besides, the “Metab. Stabil. (m)” value in data set [1] (setting [5]) is given as >30 m. In data set [2] (aqueous kinetic solubility), the “Sol.” value turned out to be 10.6 µg/mL.
In the same order, the values of `O=C1CC(C(=O)N2CCNCC2)CC2=C1C(c1ccccc1Cl)N=C(Nc1nc3ccccc3o1)N2` (centres unmarked) [Compound 282, 2-(benzo[d]oxazol-2-ylamino)-4-(2-chlorophenyl)-7-(piperazine-1-carbonyl)-4,5,6,8-tetrahydroquinazolin-5(1H)-one] are 6.85 µM, 7.69 µM, <4.7 1 × 10^−6 cm/sec, 30 m and 23.88 µg/mL.
Regarding `CC1=C(C(=O)Nc2cc(C(=O)O)ccn2)[C@@H](c2ccc(C)cc2Cl)N=C(Nc2nc3ccc(F)cc3o2)N1` [Compound 56, (S)-2-(4-(2-chloro-4-methylphenyl)-2-((6-fluorobenzo[d]oxazol-2-yl)amino)-6-methyl-1,4-dihydropyrimidine-5-carboxamido)isonicotinic acid], the IC50 at recombinant human GALK1 (setting [6]) worked out at 1.93 µM; at recombinant human GALK1 (setting [7]), 1.93 µM; at recombinant mouse GALK1 (setting [8]), 6.85 µM; on recombinant mouse GALK1 (setting [9]) it was 6.85 µM. Besides, the “Perm. (1 × 10^−6 cm/sec)” value in “PAMPA permeability” was <1 1 × 10^−6 cm/sec. For the same molecule, in data set [1] (microsomal half-life), the “Metab. Stabil. (m)” value was >30 m. Besides, the “Sol.” value in data set [2] is 53.8 µg/mL.
`CC1=C(C(=O)NCc2cnn(C)c2)C(c2ccccc2Cl)N=C(Nc2nc3ccc(F)cc3o2)N1` (centres unmarked) [Compound 44, 4-(2-chlorophenyl)-2-((6-fluorobenzo[d]oxazol-2-yl)amino)-6-methyl-N-((1-methyl-1H-pyrazol-4-yl)methyl)-1,4-dihydropyrimidine-5-carboxamide]: the IC50 at recombinant human GALK1 (setting [7]) came to 1.72 µM; at recombinant mouse GALK1 (setting [9]) it was 12.2 µM. Also, in the data set “PAMPA permeability”, the “Perm. (1 × 10^−6 cm/sec)” value is reported as 942.87 1 × 10^−6 cm/sec. Moreover, the “Metab. Stabil. (m)” value in data set [1] (microsomal half-life) was 26 m. The “Sol.” value in data set [2] came to 13.7 µg/mL.
On to `COC(=O)Cc1ccc(NC(=O)C2=C(C)NC(Nc3nc4ccccc4o3)=NC2c2ccccc2Cl)cc1` (centres unmarked) [Compound 170, methyl 2-(4-(2-(benzo[d]oxazol-2-ylamino)-4-(2-chlorophenyl)-6-methyl-1,4-dihydropyrimidine-5-carboxamido)phenyl)acetate], for which the IC50 on recombinant human GALK1 (setting [6]) amounted to 5.44 µM; at recombinant human GALK1 (setting [7]), 5.44 µM; on recombinant mouse GALK1 (setting [8]), 12.2 µM; on recombinant mouse GALK1 (setting [9]) it was 12.2 µM. Also, in “PAMPA permeability” (PAMPA), the “Perm. (1 × 10^−6 cm/sec)” value is reported as 195.0 1 × 10^−6 cm/sec. Further, in data set [1] (microsomal stability half-life), the “Metab. Stabil. (m)” value is listed as 7.464 m. Also, the “Sol.” value in data set [2] (aqueous kinetic solubility) is <1 µg/mL.
Consider `CC1=C(C(=O)Nc2ccc(Br)cc2)C(c2ccccc2Cl)N=C(Nc2nc3ccccc3o2)N1` (centres unmarked) [Compound 150, 2-(benzo[d]oxazol-2-ylamino)-N-(4-bromophenyl)-4-(2-chlorophenyl)-6-methyl-1,4-dihydropyrimidine-5-carboxamide], for which the IC50 was found to be 9.68 µM at recombinant human GALK1 (setting [6]), 9.68 µM on recombinant human GALK1 (setting [7]), 15.3 µM on recombinant mouse GALK1 (setting [8]) and 15.3 µM at recombinant mouse GALK1 (setting [9]). Further, the “Perm. (1 × 10^−6 cm/sec)” value in “PAMPA permeability” (PAMPA) is <14.9 1 × 10^−6 cm/sec. Further, the “Metab. Stabil. (m)” value in data set [1] (microsomal stability half-life) is >30 m. Also, the “Sol.” value in data set [2] (aqueous kinetic solubility) was <1 µg/mL.
As to `O=C(Nc1nncs1)C1=C(C(F)(F)F)NC(Nc2nc3ccccc3o2)=NC1c1ccccc1Cl` (centres unmarked) [Compound 246, 2-(benzo[d]oxazol-2-ylamino)-4-(2-chlorophenyl)-N-(1,3,4-thiadiazol-2-yl)-6-(trifluoromethyl)-1,4-dihydropyrimidine-5-carboxamide], the IC50 on recombinant human GALK1 (setting [3]) came out at 13.7 µM; on recombinant mouse GALK1 (setting [4]), 17.2 µM. Further, in “PAMPA permeability” (PAMPA), the “Perm. (1 × 10^−6 cm/sec)” value is 715.1 1 × 10^−6 cm/sec. In data set [1] (setting [5]), the “Metab. Stabil. (m)” value is >30 m. Moreover, the “Sol.” value in data set [2] (aqueous kinetic solubility) was found to be 21.9 µg/mL.
As for `CCn1cc(CNC(=O)C2=C(C)NC(Nc3nc4cccc(N)c4o3)=NC2c2ccc(Cl)cc2Cl)cn1` (centres unmarked) [Compound 120, 2-((7-aminobenzo[d]oxazol-2-yl)amino)-4-(2,4-dichlorophenyl)-N-((1-ethyl-1H-pyrazol-4-yl)methyl)-6-methyl-1,4-dihydropyrimidine-5-carboxamide], the IC50 at recombinant human GALK1 (setting [7]) was found to be 0.48 µM; at recombinant mouse GALK1 (setting [9]), 8.63 µM. For the same molecule, in the data set “PAMPA permeability” (PAMPA), the “Perm. (1 × 10^−6 cm/sec)” value is 289.5 1 × 10^−6 cm/sec. Besides, in data set [1] (microsomal stability half-life), the “Metab. Stabil. (m)” value is on record as 14.14 m. Besides, the “Sol.” value in data set [2] (aqueous kinetic solubility) came out at 4.6 µg/mL.
For the molecule `CC1=C(C(=O)Nc2cc(CO)ccn2)C(c2ccccc2Cl)N=C(Nc2nc3ccc(F)cc3o2)N1` (centres unmarked) [Compound 37, 4-(2-chlorophenyl)-2-((6-fluorobenzo[d]oxazol-2-yl)amino)-N-(4-(hydroxymethyl)pyridin-2-yl)-6-methyl-1,4-dihydropyrimidine-5-carboxamide], the IC50 was found to be 3.06 µM on recombinant human GALK1 (setting [6]), 3.06 µM on recombinant human GALK1 (setting [7]), 10.9 µM at recombinant mouse GALK1 (setting [8]) and 10.9 µM on recombinant mouse GALK1 (setting [9]). Moreover, the “Perm. (1 × 10^−6 cm/sec)” value in the data set “PAMPA permeability” is 59.9 1 × 10^−6 cm/sec. Further, the “Metab. Stabil. (m)” value in data set [1] (microsomal half-life) is given as >30 m. For the same molecule, in data set [2], the “Sol.” value was <1 µg/mL.
`CC1=C(C(=O)Nc2cc(C(=O)O)ccn2)C(c2cccc([N+](=O)[O-])c2Cl)N=C(Nc2nc3ccc(F)cc3o2)N1` (centres unmarked) [Compound 63, 2-(4-(2-chloro-3-nitrophenyl)-2-((6-fluorobenzo[d]oxazol-2-yl)amino)-6-methyl-1,4-dihydropyrimidine-5-carboxamido)isonicotinic acid]: the IC50 on recombinant human GALK1 (setting [7]) was determined as 19.3 µM; at recombinant mouse GALK1 (setting [9]) it was 34.3 µM. Further, the “Perm. (1 × 10^−6 cm/sec)” value in the data set “PAMPA permeability” is on record as <1 1 × 10^−6 cm/sec. Also, the “Metab. Stabil. (m)” value in data set [1] (microsomal half-life) is >30 m. The “Sol.” value in data set [2] was >84 µg/mL.
For `CC1=C(C(=O)Nc2cc(C(=O)O)ccn2)C(c2ccc(-c3ccc(C(F)(F)F)cc3)cc2Cl)N=C(Nc2nc3ccc(F)cc3o2)N1` (centres unmarked) [Compound 68, 2-(4-(3-chloro-4′-(trifluoromethyl)-[1,1′-biphenyl]-4-yl)-2-((6-fluorobenzo[d]oxazol-2-yl)amino)-6-methyl-1,4-dihydropyrimidine-5-carboxamido)isonicotinic acid], the IC50 at recombinant human GALK1 (setting [6]) amounted to 7.69 µM; at recombinant human GALK1 (setting [7]), 7.69 µM; on recombinant mouse GALK1 (setting [8]), 21.7 µM; on recombinant mouse GALK1 (setting [9]), 21.7 µM. For the same molecule, the “Perm. (1 × 10^−6 cm/sec)” value in “PAMPA permeability” is 6.6 1 × 10^−6 cm/sec. The “Metab. Stabil. (m)” value in data set [1] (microsomal half-life) was >30 m. In addition, the “Sol.” value in data set [2] was 8.1 µg/mL.
As for `CCOC(=O)c1nnc(NC(=O)C2=C(C)NC(Nc3nc4ccccc4o3)=NC2c2ccccc2Cl)s1` (centres unmarked) [Compound 168, ethyl 5-(2-(benzo[d]oxazol-2-ylamino)-4-(2-chlorophenyl)-6-methyl-1,4-dihydropyrimidine-5-carboxamido)-1,3,4-thiadiazole-2-carboxylate], the IC50 on recombinant human GALK1 (setting [6]) was 4.85 µM; on recombinant human GALK1 (setting [7]), 4.85 µM; on recombinant mouse GALK1 (setting [8]), 10.9 µM. In addition, the “Perm. (1 × 10^−6 cm/sec)” value in “PAMPA permeability” (PAMPA) is on record as <2.7 1 × 10^−6 cm/sec. The “Metab. Stabil. (m)” value in data set [1] (microsomal stability half-life) worked out at 3.158 m. In data set [2] (aqueous kinetic solubility), the “Sol.” value was <1 µg/mL.
